{
  "source": "patent US20160008339A1",
  "about": "“PSORALEN DERIVATIVES FOR PREVENTING OR TREATING HEART FAILURE OR CARDIAC HYPERTROPHY” (MAX-DELBRUCK-CENTRUM FUR MOLEKULARE MEDIZIN, priority 2012, published 2016)",
  "key": {"3T3 mouse fibroblasts": {"test_system": "3T3 mouse fibroblasts", "test": "LPA-induced stress fibre formation, TRITC-phalloidin fluorescence", "assay_type": "cell-based", "conditions": "3T3 cells, LPA 300 nM 10 min; compound 30 μmol/L 30 min pre-treatment", "source_text": "For the initial analysis, 3T3 cells were used to evaluate the cellular effects of the compounds of the present invention. In these cells changes in the cytoskeleton caused by GTPase activation are well observable, because the cells have a G protein coupled receptor for LPA. A stimulation of 3T3 cells with LPA leads to an activation of RhoA and thereby to the formation of fibrillar actin filaments (F-actin, stress fibres). The participation of AKAP-Lbc as an exchange factor for RhoA within the signal transduction via a G protein of the G−12/13 family was shown.\n3T3 mouse fibroblasts were seeded on 30 mm cover slips (in 6 well plates) in a cell density of 2×10^5 cells/well. […]\nFollowing that, the cells were washed with phosphate buffer (Dulbecco's Phosphate-Buffered Saline++) and fixed in 2.5% paraformaldehyde in sodium cacodylate buffer (100 mmol/L sodium cacodylate, 100 mmol/L sucrose, pH 7.4) for 15 min. […] For the microscopic investigations, images were taken with two different fluorescence channels. […]\nWithout LPA stimulation no stress fibres could be identified after addition of DMSO instead of the compounds of the invention (FIG. 2A, a). […] The quantification of the stress fibre formation were performed with the software package ImageJ by the determination of the overall fluorescence of the TRITC-phalloidin. […]"}, "[1]": {"test_system": "different RhoGEF constructs", "test": "Dual luciferase SRE reporter assay, other RhoGEF constructs in HEK293", "assay_type": "cell-based, human", "conditions": "50 μmol/L, vs DMSO treated control", "procedure": "(§1) The experiments were performed following the protocol of the dual luciferase reporter assay (Promega). HEK293 cells were transfected with plasmid DNAs of two luciferases and plasmids of different exchange factors. A serum response element was located ahead of the coding luciferase sequences. Activated RhoA activates the serum response element, which enables the expression of the firefly luciferase. After 4 hours the cells were treated with compound 31413. After additional twenty four hours the cells were lysed in passive lysis buffer (Promega). The luciferase activity in the cell lysate was determined by measurement of the luminescence signal according to above mentioned protocol with 96 well plate (OptiPlate 96) and LarII- and. Stop-&Glow-substrate solutions in a micro plate reader\n(§2) To rule out that other RhoGEF are influenced by the inventive compounds in their activity, HEK293 cells were transfected with different RhoGEF constructs. Additionally, as normalization control, two luciferase plasmids were added, which code for a serum response element (SRE) coupled firefly luciferase and for a Renilla luciferase, respectively. […] The luciferase activities were determined in the lysate. […] Further, the luciferase activity of the indicated RhoGEFs was analysed in absence or presence of 50 μmol/L compound 31413 (FIG. 4 B)."}, "[2]": {"test_system": "primary neonatal rat cardiomyocytes", "test": "Beat rate of neonatal cardiomyocytes counted by light microscope", "assay_type": "cell-based", "conditions": "for beat rate after PE stimulation: PE 6 h", "procedure": "For cultivation of primary neonatal rat cardiomyocytes, hearts of two to three days old rats were obtained and quickly stored on ice in ADS buffer (116.4 mM NaCl, 5.4 mM KC, 5.6 mM dextrose, 10.9 mM NaH2PO4, 405.7 μmol/L MgSO4, 20 mM Hepes, pH 7.3). Under sterile conditions, the hearts were cleaned from blood and vessels, cut into small pieces and transferred into falcon tubes. The ADS buffer was exchanged against an enzyme solution (see table below). Within four cycles each with five ml enzyme solution and an enzyme mix comprising collagenase and pancreatin, isolated cells were released from the tissue (12 min at 37° C. in a water bath with approx. 220 rpm).\nThe supernatant with the isolated cells was collected, transferred in fetal calf serum (FCS, 2.5 ml on ice) and subsequently centrifugated in FCS (100 g for 3 min at 4° C.). The supernatant of the centrifugation was discarded and the pellet was resuspended in 5 ml cold plating medium. After an additional centrifugation, the pellet was resuspended in 15 ml medium, transferred into a dish and incubated for two hours at 37° C. to allow the settling of the fibroblasts. The cardiomyocytes in the supernatant were counted with a Scepter Handheld Automated Cell Counter and transferred in dishes coated with gelatine. On the following day the medium was changed.\nThe neonatal cardiomyocytes were seeded in 6-well plates with 1.5×10^6 cell per well. The stimulation with 100 μmol/L phenylephrine (PE) was performed for six or twenty four hours at 37° C. Untreated cells served as control. The effect of compound 31413 on the α-adrenergic stimulation of the cardiomyocytes was determined after incubation with the compound for three hours. To do this, the contraction of the cells was counted within a minute and different conditions were compared.\nIsolated neonatal cardiomyocytes were used to investigate the relation between AKAP-Lbc induced RhoA activation and the contractility of the heart. After a chronic stimulation of the α1-adreno receptors (AR) with the specific agonist PE for six hours, the beats of the cardiomyocytes were counted over a period of 15 s and a beat rate per minute (bpm) was calculated. An increase of the beat rate of the cardiomyocytes from 100 bpm to 160 beats per minute could be observed. […] The beat rate of neonatal cardiomyocytes was counted with help of a light microscope."}, "[3]": {"test_system": "AKAP-Lbc mediated RhoA/SRF activation", "test": "Dual luciferase SRE reporter assay, AKAP-Lbc transfected HEK293", "assay_type": "cell-based", "conditions": "Homo sapiens", "procedure": "as §1, §2"}},
  "data": [
    {"smiles": "COc1ccc(-c2coc3cc4oc(=O)c(C)c(C)c4cc23)cc1", "note": "[Compound 31413, 3-(4-methoxyphenyl)-5,6-dimethyl-furo[3,2-g]chromen-7-one]", "values": [
      {"measurement": "formation of stress fibres", "setting": "3T3 mouse fibroblasts", "result": "suppression of the stress fibre formation"},
      {"measurement": "luciferase activity of the indicated RhoGEFs", "setting": "[1]", "result": "None of the investigated GEF shows a significant reduction"},
      {"measurement": "beat rate after PE stimulation", "setting": "[2]; 2.5 μmol/L compound", "result": "normalization of the beat rate"},
      {"measurement": "beat rate after PE stimulation", "setting": "[2]; 25 μmol/L compound", "result": "arrest"},
      {"measurement": "beat rate after PE stimulation", "setting": "[2]; 50 μmol/L compound", "result": "arrest"},
      {"measurement": "phenylephrine/alpha-adrenoceptor-induced increase in cardiac myocyte beating frequency", "setting": "[2]; at 2.5, 10, 25 and 50 μmol/L", "result": "prevents"},
      {"measurement": "IC50", "setting": "[3]", "result": "~25", "unit": "µM"}
    ]}
  ]
}
